Results from article PMC2923275 (Biochemical pharmacology, 2010).

Tests used:
[1] = system: uninfected human foreskin fibroblasts; test: Host toxicity, MTT assay on uninfected host cells; details: infection: None
[2] = system: wild type (RH) strain of T. gondii; test: Anti-toxoplasmic activity in tissue culture; assay type: cell-based, Toxoplasma gondii; details: wild type (RH) in human fibroblasts
[3] = system: adenosine kinase deficient (TgAK^-3) strain of T. gondii; test: Anti-toxoplasmic activity in tissue culture; assay type: cell-based, Toxoplasma gondii; details: TgAK^-3 in human fibroblasts

SMILES	host-toxicity (survival of uninfected host cells) ([1]; 5 μM compound) [%]	host-toxicity (survival of uninfected host cells) ([1]; 10 μM compound) [%]	host-toxicity (survival of uninfected host cells) ([1]; 25 μM compound) [%]	host-toxicity (survival of uninfected host cells) ([1]; 50 μM compound) [%]	percent survival of parasite ([2]; 5 μM compound) [%]	percent survival of parasite ([2]; 10 μM compound) [%]	percent survival of parasite ([2]; 25 μM compound) [%]	percent survival of parasite ([2]; 50 μM compound) [%]	percent survival of parasite ([3]; 5 μM compound) [%]	percent survival of parasite ([3]; 10 μM compound) [%]	percent survival of parasite ([3]; 25 μM compound) [%]	percent survival of parasite ([3]; 50 μM compound) [%]
OCC1CC(n2cnc3c(SCc4ccccc4F)ncnc32)C(O)C1O (stereo not shown) [Compound 2, Carbocyclic 6-(o-fluorobenzylthio)inosine]	100	100	100	85.8	98.6	93.7	39.2	12.7	100	100	100	100
OCC1CC(n2cnc3c(SCc4ccccc4Cl)ncnc32)C(O)C1O (stereo not shown) [Compound 3, Carbocyclic 6-(o-chlorobenzylthio)inosine]	100	100	100	100	79.5	48.8	9.8	2.2	100	100	100	100
Cc1ccccc1CSc1ncnc2c1ncn2C1CC(CO)C(O)C1O (stereo not shown) [Compound 4, Carbocyclic 6-(o-methylbenzylthio)inosine]	100	100	100	99.2	82.7	45.4	7.6	0.0	100	100	100	100
Cc1cccc(CSc2ncnc3c2ncn3C2CC(CO)C(O)C2O)c1 (stereo not shown) [Compound 5, Carbocyclic 6-(m-methylbenzylthio)inosine]	100	100	100	96.1	88.3	64.7	13.7	1.2	100	100	100	100
OCC1CC(n2cnc3c(SCc4cccc(C(F)(F)F)c4)ncnc32)C(O)C1O (stereo not shown) [Compound 6, Carbocyclic 6-(m-trifluoromethylbenzylthio)inosine]	100	100	100	90.6	79.0	47.1	6.3	1.0	100	100	100	100
O=[N+]([O-])c1cccc(CSc2ncnc3c2ncn3C2CC(CO)C(O)C2O)c1 (stereo not shown) [Compound 7, Carbocyclic 6-(m-nitrobenzylthio)inosine]	100	100	100	100	84.4	50.9	4.2	0.0	100	100	100	100
OCC1CC(n2cnc3c(SCc4ccc(Cl)cc4)ncnc32)C(O)C1O (stereo not shown) [Compound 9, Carbocyclic 6-(p-chlorobenzylthio)inosine]	100	100	100	100	72.9	11.9	0.0	0.0	100	100	100	100
OCC1CC(n2cnc3c(SCc4ccc(Br)cc4)ncnc32)C(O)C1O (stereo not shown) [Compound 10, Carbocyclic 6-(p-bromobenzylthio)inosine]	100	100	100	100	77.1	47.3	1.2	1.0	100	100	100	100
O=[N+]([O-])c1ccc(CSc2ncnc3c2ncn3C2CC(CO)C(O)C2O)cc1 (stereo not shown) [Compound 12, Carbocyclic 6-(p-nitrobenzylthio)inosine]	100	100	100	100	100	97.6	44.2	16.8	100	100	100	100
N#Cc1ccc(CSc2ncnc3c2ncn3C2CC(CO)C(O)C2O)cc1 (stereo not shown) [Compound 13, Carbocyclic 6-(p-cyanobenzylthio)inosine]	100	100	100	100	100	100	48.8	17.8	100	100	100	100
COC(=O)c1ccc(CSc2ncnc3c2ncn3C2CC(CO)C(O)C2O)cc1 (stereo not shown) [Compound 14, Carbocyclic 6-(p-methoxycarbonylbenzylthio)inosine]	100	99.4	88.7	87.1	53.9	6.3	1.5	0.0	100	100	100	100
COc1ccc(CSc2ncnc3c2ncn3C2CC(CO)C(O)C2O)cc1 (stereo not shown) [Compound 15, Carbocyclic 6-(p-methoxybenzylthio)inosine]	100	100	94.3	82.1	48.3	1.9	0.0	0.0	98.4	100	100	100
OCC1CC(n2cnc3c(SCc4ccc(OC(F)(F)F)cc4)ncnc32)C(O)C1O (stereo not shown) [Compound 16, Carbocyclic 6-(p-trifluoromethoxybenzylthio)inosine]	100	98.2	96.7	89.3	87.3	53.6	8.1	0.0	100	100	100	100
Nc1ccc(S(=O)(=O)Nc2ncccn2)cc1 [Compound 23, Sulfadiazine, reference compound]	98.2	99.8	99.8	102	92.9	58.0	53.4	46.3	–	–	–	–
CCc1nc(N)nc(N)c1-c1ccc(Cl)cc1 [Compound 24, Pyrimethamine, reference compound]	101	100	108	108	98.9	55.3	25.1	23.2	–	–	–	–
